Values belong to the molecule of their own block, whether it stands above or below them.
Assay: solvent given as SMILES
[1] = in O=P(c1ccccc1)(c1ccccc1)c1ccccc1Oc1ccccc1P(=O)(c1ccccc1)c1ccccc1

SMILES: Cc1c(C)c(N2c3ccccc3Oc3ccccc32)c(C)c(C)c1B(c1c(C)c(C)c(N2c3ccccc3Oc3ccccc32)c(C)c1C)c1c(C)c(C)c(N2c3ccccc3Oc3ccccc32)c(C)c1C
fluorescence lifetime (in CC(C)(C)c1ccc(-n2c3ccc([Si](c4ccccc4)(c4ccccc4)c4ccccc4)cc3c3cc([Si](c4ccccc4)(c4ccccc4)c4ccccc4)ccc32)cc1): 1.3 ns

SMILES: COC(=O)/C(C#N)=c1\s/c(=c2/s/c(=C(/C#N)C(=O)OC)c3cc(-c4ccc(C(F)(F)F)cc4)sc23)c2sc(-c3ccc(C(F)(F)F)cc3)cc12
fluorescence lifetime (in Cc1ccccc1): 2.32 ns

SMILES: COc1ccc(C2=CC(c3ccc(OC)cc3)=[O+][B-](C(C)=O)(C(C)=O)O2)cc1
fluorescence lifetime (in CC#N): 2.1 ns
fluorescence lifetime (in ClC(Cl)(Cl)Cl): 2.1 ns

SMILES: ClP1(Cl)=NP(Cl)(Cl)=NP(Cl)(Oc2ccc3ccc4cccc5ccc2c3c45)=N1 (stereo unspecified)
fluorescence lifetime (in ClCCl): 3.29 ns

SMILES: Cc1c(-c2nc(-c3ccccc3)nc(-c3ccccc3)n2)ccc(-n2c3ccccc3c3cc4c(cc32)C2c3ccccc3C4c3ccccc32)c1C
fluorescence lifetime [1]: 10 ns

SMILES: c1coc(-c2nc3ccccc3[nH]2)c1
fluorescence lifetime (in C1CCOC1): 1.47 ns
fluorescence lifetime (in CCCCCC): 1.48 ns
fluorescence lifetime (in CCO): 1.55 ns
fluorescence lifetime (in CCOCC): 1.53 ns
fluorescence lifetime (in CO): 1.58 ns
fluorescence lifetime (in ClC(Cl)Cl): 0.6 ns
fluorescence lifetime (in ClCCl): 1.26 ns
fluorescence lifetime (in O): 1.67 ns

SMILES: c1ccc2c(c1)Oc1ccccc1N2c1ccc(-c2nnc(-c3ccc(N4c5ccccc5Oc5ccccc54)cc3)o2)cc1
fluorescence lifetime (in Cc1ccccc1): 21.2 ns
fluorescence lifetime [1]: 11.2 ns

SMILES: C(=C\c1ccccn1)/c1ccc(N(c2ccc(/C=C/c3ccccn3)cc2)c2ccc(-c3nc4ccccc4nc3-c3ccc(N(c4ccc(/C=C/c5ccccn5)cc4)c4ccc(/C=C/c5ccccn5)cc4)cc3)cc2)cc1
fluorescence lifetime (in C1CCOC1): 1.17 ns

SMILES: Nc1ccc2c(c1)Cc1ccccc1-2
fluorescence lifetime (in C1CCCCC1): 5.3 ns
fluorescence lifetime (in CC#N): 3.2 ns
fluorescence lifetime (in CO): 4.5 ns
fluorescence lifetime (in O): 2.1 ns

SMILES: CC(C)(C)c1ccc2c(c1)c1cc(C(C)(C)C)ccc1n2-c1cccc(-n2c3ccc(C(C)(C)C)cc3c3cc(C(C)(C)C)ccc32)c1C#N
fluorescence lifetime (in Cc1ccccc1): 5 ns
fluorescence lifetime [1]: 6.8 ns

SMILES: FC(F)(F)C(F)(F)C(F)(F)C(F)(F)C(F)(F)C(F)(F)CCOc1nnc(Cl)nn1
fluorescence lifetime (in ClCCl): 153 ns
fluorescence lifetime (in OCC(F)(F)F): 152 ns

SMILES: CC1=C(c2cccs2)C(C)=[N+]2C1=C(c1ccccc1)c1c(C)c(-c3cccs3)c(C)n1[B-]2(F)F
fluorescence lifetime (in Cc1ccccc1): 3.4 ns

SMILES: CCCCc1cc2cccc3cc(CCCC)c4cc(-c5cc6[b-]7c(c5)c(CCCC)cc5cccc(cc6CCCC)[n+]75)cc1[b-]4[n+]23
fluorescence lifetime (in C1CCCCC1): 20.5 ns

Continued, values first:

fluorescence lifetime (in ClCCl): 1.14 ns
SMILES: CCCCC(CC)COc1ccc2nc(-c3ccc(-c4ccccc4)s3)sc2c1 (stereo unspecified)

fluorescence lifetime (in C1CCOC1): 7.14 ns
fluorescence lifetime (in CO): 7.55 ns
SMILES: CCOC(=O)C1=CN(c2ccccc2)C=CC1c1ccccc1 (stereo unspecified)

fluorescence lifetime (in ClCCl): 3.95 ns
SMILES: CC(C)c1cccc(C(C)C)c1N1C(=O)c2cccc3c(Oc4ccc(Cl)cc4)ccc(c23)C1=O

fluorescence lifetime (in ClC(Cl)Cl): 2.9 ns
SMILES: CCn1c2ccccc2c2cc3c(cc21)c1ccccc1n3CC

fluorescence lifetime (in C1CCCCC1): 4.3 ns
fluorescence lifetime (in C1CCOC1): 5.3 ns
fluorescence lifetime (in C1COCCO1): 0.8 ns
fluorescence lifetime (in CC#N): 3.9 ns
fluorescence lifetime (in CCO): 5.1 ns
fluorescence lifetime (in CN(C)C=O): 6.5 ns
fluorescence lifetime (in CO): 4 ns
fluorescence lifetime (in COCCOC): 4.8 ns
fluorescence lifetime (in CS(C)=O): 8.2 ns
fluorescence lifetime (in O): 5.7 ns
fluorescence lifetime (in OCC(O)CO): 8.9 ns
fluorescence lifetime (in OCCO): 7 ns
SMILES: CN(C)c1c2ccccc2cc2ccccc12

fluorescence lifetime (in CC#N): 1.5 ns
SMILES: O=C(O)c1ccc(-c2nc(-c3ccccc3)c3ccccn23)cc1

fluorescence lifetime (in ClC(Cl)Cl): 4.4 ns
SMILES: COc1ccc(-c2oc3cccc4c5c(-c6ccc(OC)c(OC)c6)/c(=N/S(=O)(=O)C(F)(F)F)oc6cccc(c2c34)c65)cc1OC

fluorescence lifetime (in c1cc(-c2cccc(-n3c4ccccc4c4ccccc43)c2)cc(-n2c3ccccc3c3ccccc32)c1): 21 ns
SMILES: N#Cc1nc(-c2ccc(N3c4ccccc4Oc4ccccc43)cc2)c(-c2ccc(N3c4ccccc4Oc4ccccc43)cc2)nc1C#N

fluorescence lifetime (in ClCCl): 6.6 ns
SMILES: CC(C)(C)c1ccc(-c2nc3c4ccc(-c5ccc6ccccc6c5)cc4c4cc(-c5ccc6ccccc6c5)ccc4c3n2-c2ccc(C(C)(C)C)cc2)cc1

fluorescence lifetime (in ClC(Cl)Cl): 7.1 ns
SMILES: COc1ccc(-c2cc(-c3ccc(N(C)C)cc3)nc(-c3ccccc3)n2)cc1

fluorescence lifetime (in CCO): 3.26 ns
fluorescence lifetime (in O): 2.44 ns
SMILES: CN(C)c1ccc2c(-c3ccc(C(=O)[O-])cc3C(=O)[O-])c3ccc(=[N+](C)C)cc-3oc2c1

— the Deep4Chem optical property database
